Laboratory results reported in ChEMBL document CHEMBL1133977, “Robinlin: a novel bioactive homo-monoterpene from Robinia pseudoacacia L. (Fabaceae)” (Bioorg Med Chem Lett, 2001).
≈ marks a conversion by molar mass, not a printed value.

Assays:
HT-29 = assay: In vitro cytotoxic activity against HT-29 (human colon adenocarcinoma) cell line; format: functional; settings: read-out: ED50 (the source's name)
MIA PaCa-2 = assay: In vitro cytotoxic activity against PACA-2 (human pancreatic carcinoma) cell line; format: functional; settings: read-out: ED50 (the source's name)
PC-3 = assay: In vitro cytotoxic activity against PC-3 (human prostate adenocarcinoma) cell line; format: functional; settings: read-out: ED50 (the source's name)
[1] = Activity in brine shrimp lethality test (BST); format: organism-based; settings: artemia, in vivo
A498 = assay: In vitro cytotoxic activity against A-498 (human kidney carcinoma) cell line; format: functional; settings: read-out: ED50 (the source's name)
A549 = assay: In vitro cytotoxic activity against A-549 (human lung carcinoma) cell line; format: functional; settings: read-out: ED50 (the source's name)
MCF7 = assay: In vitro cytotoxic activity against MCF-7 (human breast carcinoma) cell line; format: functional; settings: read-out: ED50 (the source's name)

Structure (SMILES)	EC50 (HT-29)	EC50 (MIA PaCa-2)	EC50 (PC-3)	LC50 [1]	EC50 (A498)	EC50 (A549)	EC50 (MCF7)
CC1=C(CCO)C(C)(C)C[C@@H](O)C1=O	52000 ng/mL (≈ 262 µM)	> 100000 ng/mL	> 100000 ng/mL	4900 ng/mL (≈ 24.7 µM)	> 100000 ng/mL	47000 ng/mL (≈ 237 µM)	46000 ng/mL (≈ 232 µM)
COc1cccc2c1C(=O)c1c(O)c3c(c(O)c1C2=O)C[C@@](O)(C(=O)CO)C[C@@H]3O[C@H]1C[C@H](N)[C@H](O)[C@H](C)O1 [DOXORUBICIN]	1.3 ng/mL (≈ 0.00239 µM)	0.18 ng/mL (≈ 0.000331 µM)	0.24 ng/mL (≈ 0.000442 µM)		0.46 ng/mL (≈ 0.000846 µM)	0.21 ng/mL (≈ 0.000386 µM)	5.8 ng/mL (≈ 0.0107 µM)
